Measured values taken from patent US10544147B2, “Purine inhibitors of human phosphatidylinositol 3-kinase delta” (MERCK SHARP & DOHME CORP., priority 2016, dated 2020).

biological target: PI3Kalpha (Homo sapiens (Human), UniProt P42336); test: HTRF PI3K biochemical assay, alpha isoform (selectivity versus delta); conditions: ratio PI3K-alpha IC50 value/PI3K-delta IC50 value
Protocol: HTRF PI3K Biochemical Assay to Measure Intrinsic Potency of Compound Inhibitors
This loss of signal is nonlinear with respect to both increasing product and time. This non-linear detection will impact accuracy of IC50 calculations; therefore, there is a need for a correction factor to obtain more accurate IC50 values. This correction is derived from a PIP3 standard curve run in a separate assay plate. All data were calculated using the ratio of acceptor (APC) to donor (Europium) fluorescence in each well of the assay plate. […] An IC50 was then calculated fitting the % inhibition data to the equation: % inhibition=min+(Max−min)/1+([inhibitor]/IC50)^n) where min is the % inhibition with inhibitor, max is the signal in DMSO control, and n is the Hill slope.
The biological data was collected using the methodology described above.
The determination of relative selectivity for a given compound is defined as the relative ratio of the (PI3K-alphaIC50 value/PI3K-delta IC50 value).

Sequence of PI3Kalpha (P42336 whole entry, canonical isoform): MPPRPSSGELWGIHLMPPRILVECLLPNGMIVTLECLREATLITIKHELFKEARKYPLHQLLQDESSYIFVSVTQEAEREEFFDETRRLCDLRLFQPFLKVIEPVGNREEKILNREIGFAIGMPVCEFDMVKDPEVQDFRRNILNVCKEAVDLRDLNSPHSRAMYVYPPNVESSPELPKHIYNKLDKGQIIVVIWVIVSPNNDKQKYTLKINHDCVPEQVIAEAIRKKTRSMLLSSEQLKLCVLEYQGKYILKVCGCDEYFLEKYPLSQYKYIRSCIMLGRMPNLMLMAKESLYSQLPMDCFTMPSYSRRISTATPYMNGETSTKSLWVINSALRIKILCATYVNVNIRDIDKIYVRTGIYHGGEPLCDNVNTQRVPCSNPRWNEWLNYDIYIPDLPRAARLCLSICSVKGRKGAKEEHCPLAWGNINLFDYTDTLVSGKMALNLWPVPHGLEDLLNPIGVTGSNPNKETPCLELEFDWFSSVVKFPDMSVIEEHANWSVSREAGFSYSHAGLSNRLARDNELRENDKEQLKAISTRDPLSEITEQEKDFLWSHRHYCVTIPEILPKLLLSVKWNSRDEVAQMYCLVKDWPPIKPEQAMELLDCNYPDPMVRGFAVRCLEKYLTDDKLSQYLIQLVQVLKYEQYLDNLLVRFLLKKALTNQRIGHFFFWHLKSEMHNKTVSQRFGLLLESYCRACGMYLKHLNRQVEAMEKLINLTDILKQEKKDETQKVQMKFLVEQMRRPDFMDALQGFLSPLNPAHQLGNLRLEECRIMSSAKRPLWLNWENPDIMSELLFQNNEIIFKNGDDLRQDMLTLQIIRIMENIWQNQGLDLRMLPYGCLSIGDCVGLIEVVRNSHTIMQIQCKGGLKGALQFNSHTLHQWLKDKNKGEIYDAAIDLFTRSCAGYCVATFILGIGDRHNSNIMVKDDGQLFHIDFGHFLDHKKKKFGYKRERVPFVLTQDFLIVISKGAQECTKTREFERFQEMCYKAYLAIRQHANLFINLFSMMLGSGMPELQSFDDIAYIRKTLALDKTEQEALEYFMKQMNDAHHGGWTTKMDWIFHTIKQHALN
Sequence of PI3Kalpha (P27986 whole entry partner, canonical isoform): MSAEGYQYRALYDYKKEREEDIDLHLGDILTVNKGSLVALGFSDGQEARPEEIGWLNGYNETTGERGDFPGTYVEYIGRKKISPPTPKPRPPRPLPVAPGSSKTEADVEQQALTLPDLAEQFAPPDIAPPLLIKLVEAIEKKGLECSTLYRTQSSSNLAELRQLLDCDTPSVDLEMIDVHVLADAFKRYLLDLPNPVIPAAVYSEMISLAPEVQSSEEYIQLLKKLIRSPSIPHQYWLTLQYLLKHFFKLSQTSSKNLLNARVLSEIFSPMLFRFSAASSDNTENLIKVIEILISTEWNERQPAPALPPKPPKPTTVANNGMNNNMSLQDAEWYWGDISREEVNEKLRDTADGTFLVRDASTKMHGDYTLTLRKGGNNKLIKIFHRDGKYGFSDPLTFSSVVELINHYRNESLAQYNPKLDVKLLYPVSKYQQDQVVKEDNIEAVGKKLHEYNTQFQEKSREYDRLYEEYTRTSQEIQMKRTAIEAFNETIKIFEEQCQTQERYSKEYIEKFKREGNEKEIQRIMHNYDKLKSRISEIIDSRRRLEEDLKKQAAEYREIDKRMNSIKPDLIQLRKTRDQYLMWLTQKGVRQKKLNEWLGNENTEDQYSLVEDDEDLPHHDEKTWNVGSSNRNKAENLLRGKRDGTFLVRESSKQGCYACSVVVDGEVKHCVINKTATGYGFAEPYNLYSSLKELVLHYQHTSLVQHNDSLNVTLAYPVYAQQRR

SMILES | Relative Selectivity versus PI3Kalpha
CCn1c(-c2cnc(C)nc2)nc2c(-c3ccc4c(c3)C(C)(Cc3cncnc3)C(=O)N4)ncnc21 (racemic) [Compound 1-33, 5-(9-ethyl-8-(2-methylpyrimidin-5-yl)-9H-purin-6-yl)-3-methyl-3-(pyrimidin-5-ylmethyl)indolin-2-one] | >10
CCn1c(-c2cnc(C)nc2)nc2c(-c3ccc4c(c3)C(C)(OC(C)C)C(=O)N4)ncnc21 (racemic) [Compound 2-73, 5-(9-ethyl-8-(2-methylpyrimidin-5-yl)-9H-purin-6-yl)-3-isopropoxy-3-methylindolin-2-one] | >10
CCn1c(-c2cnc(C)nc2)nc2c(-c3ccc4c(c3)C(C)(OC3CCC3)C(=O)N4)ncnc21 (racemic) [Compound 2-74, 3-cyclobutoxy-5-(9-ethyl-8-(2-methylpyrimidin-5-yl)-9H-purin-6-yl)-3-methylindolin-2-one] | >10
Cc1ncc(-c2nc3c(-c4ccc5c(c4)C(C)(OCC4CC4)C(=O)N5)ncnc3n2C)cn1 (racemic) [Compound 2-75, 3-(cyclopropylmethoxy)-3-methyl-5-(9-methyl-8-(2-methylpyrimidin-5-yl)-9H-purin-6-yl)indolin-2-one] | >10
CCn1c(-c2cnc(C)nc2)nc2c(-c3ccc4c(c3)C(C#N)(CC(C)C)C(=O)N4)ncnc21 (stereo not shown) [Compound 1-11, 5-(9-Ethyl-8-(2-methylpyrimidin-5-yl)-9H-purin-6-yl)-3-isobutyl-2-oxoindoline-3-carbonitrile] | >10
CCn1c(-c2cnc(C)nc2)nc2c(-c3ccc4c(c3)C(C)(Cc3ccccc3)CN4)ncnc21 (stereo not shown) [Compound 1-18, 6-(3-Benzyl-3-methylindolin-5-yl)-9-ethyl-8-(2-methylpyrimidin-5-yl)-9H-purine] | >10
CCn1c(-c2cnc(C)nc2)nc2c(-c3ccc4c(c3)C(C)(Cc3ccccc3)CN4C(C)=O)ncnc21 (stereo not shown) [Compound 1-19, 1-(3-Benzyl-5-(9-ethyl-8-(2-methylpyrimidin-5-yl)-9H-purin-6-yl)-3-methylindolin-1-yl)ethan-1-one] | >10
CCn1c(-c2cnc(C)nc2)nc2c(-c3ccc4c(c3)C(C)(Cc3ccccc3)CN4C)ncnc21 (stereo not shown) [Compound 1-22, 6-(3-Benzyl-1,3-dimethylindolin-5-yl)-9-ethyl-8-(2-methylpyrimidin-5-yl)-9H-purine] | >10
CCn1c(-c2cnc(C)nc2)nc2c(-c3ccc4c(c3)C(C#N)(N3CC(C)(OC)C3)C(=O)N4)ncnc21 (stereo not shown) [Compound 2-77, 5-(9-ethyl-8-(2-methylpyrimidin-5-yl)-9H-purin-6-yl)-3-(3-methoxy-3-methylazetidin-1-yl)-2-oxoindoline-3-carbonitrile] | >10

Continued, values first:

Relative Selectivity versus PI3Kalpha | SMILES
>10 | Cc1ncc(-c2nc3c(-c4ccc5c(c4)C4(CCN(C(=O)C6CC6)CC4)C(=O)N5)ncnc3n2C)cn1 [Compound 3-25, 1′-(cyclopropanecarbonyl)-5-(9-methyl-8-(2-methylpyrimidin-5-yl)-9H-purin-6-yl)spiro[indoline-3,4′-piperidin]-2-one]
>10 | CCn1c(-c2cnc(C)nc2)nc2c(-c3ccc4c(c3)C3(CCCC3)C(=O)N4)ncnc21 [Compound 3-34, 5′-(9-ethyl-8-(2-methylpyrimidin-5-yl)-9H-purin-6-yl)spiro[cyclopentane-1,3′-indolin]-2′-one]
9 | CCn1c(-c2cnc(C)nc2)nc2c(-c3ccc4c(c3)CNS4(=O)=O)ncnc21 [Compound 4-13, 5-(9-ethyl-8-(2-methylpyrimidin-5-yl)-9H-purin-6-yl)-2,3-dihydrobenzo[d]isothiazole 1,1-dioxide]
>10 | CCn1c(-c2cnc(C)nc2)nc2c(-c3ccc4c(c3)CN(C)S4(=O)=O)ncnc21 [Compound 4-14, 5-(9-ethyl-8-(2-methylpyrimidin-5-yl)-9H-purin-6-yl)-2-methyl-2,3-dihydrobenzo[d]isothiazole 1,1-dioxide]
